# In patent publication US20120329749A1, “Methods Of Preventing Or Treating Disease States Related To Certain Metabolic Abnormalities” (priority 2011, published 2012):
# Test system: erectile dysfunction
# Assay: Patient-reported erectile dysfunction symptoms
# Procedure: The patient was placed on a regimen of 5,0 mg L-methylfolate and 2 mg methyl-B12 per day.
# The patient was placed on a regimen of 2.8 mg L-methylfolate and 2 mg methyl-B12 per day.
# The patient was placed on a regimen of 5.0 mg L-methylfolate and 2 mg methyl-B12 per day.
# The patient was placed on a regimen of L-methylfolate, methyl-B12, and pyridoxal-5-phosphate (PSP; active vitamin B6) twice per day.
# The patient was placed on a regimen of L-methylfolate, methyl-B12, and pyridoxal-5-phosphate (P5P; active vitamin B6) twice per day.
smiles,measurement,setting,value
CCCc1nn(C)c2c(=O)[nH]c(-c3cc(S(=O)(=O)N4CCN(C)CC4)ccc3OCC)nc12 [Viagra],effect on erectile dysfunction (patient history),"Patient 20, 50 mg for 2 months",ineffective
same,effect on erectile dysfunction (patient history),"Patient 21, 20 mg for 1 month",ineffective
